Experimental data as given in US8399444B2, “Bicyclic imidazole as DP1 receptor antagonists” (GlaxoSmithKline Intellectual Property Development Ltd., priority 2008, dated 2013).
Where a name gives a salt, the structure may show the parent alone.

Columns and labels:
[1] = test system: allergic rhinitis model; conditions: oral administration, guinea pig; cited from earlier work
[2] = test system: asthma model; conditions: guinea pig; cited from earlier work
[3] = target: T1, Prostanoid DP1 receptor (Homo sapiens, UniProt Q13258); experiment: Measurement of cAMP using TR-FRET LANCE assay: Prostanoid DP1; assay type: cell-based; conditions: CHO cells expressing DP1 receptor, antagonism of PGD2 (EC80) cAMP response; read-out: pKi value (converted)
T1 construct: expressed in transfected cells; host or cells: CHO K1
T1 sequence (Q13258 1-359): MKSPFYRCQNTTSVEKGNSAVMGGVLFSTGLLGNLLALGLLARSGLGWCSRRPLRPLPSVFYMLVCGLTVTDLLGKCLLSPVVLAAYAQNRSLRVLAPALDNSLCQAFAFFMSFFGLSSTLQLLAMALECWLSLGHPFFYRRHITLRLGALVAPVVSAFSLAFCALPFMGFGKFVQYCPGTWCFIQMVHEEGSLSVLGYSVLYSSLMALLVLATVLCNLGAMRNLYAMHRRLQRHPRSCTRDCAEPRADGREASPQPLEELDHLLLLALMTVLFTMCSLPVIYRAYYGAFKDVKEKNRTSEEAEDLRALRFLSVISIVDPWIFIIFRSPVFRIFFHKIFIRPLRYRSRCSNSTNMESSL
Procedure: CHO K1 cells, stably expressing the Prostanoid DP1 receptor, were maintained in culture in DMEM/F12, supplemented with 5% FBS, 2 mM L-glutamine, 400 μg/mL hygromycin B in 95%: 5% air: CO2 at 37° C. Following harvest from culture, cells were centrifuged at 250 g at 4° C. for 10 minutes and re-suspended in ice cold dialysed FCS. Once the cells were in mono-suspension they were slowly mixed with an equal volume of ice cold 80% dialysed FCS: 20% DMSO (pre-mixed and chilled several hours earlier). The cells were then aliquoted into 1 mL tubes within a 96 well block (pre-cooled to 4° C.). Once sealed, the tubes were frozen in a controlled rate freezer. The frozen cells were then transferred to a −140° C. freezer for long term storage.
Measurement of cAMP Using TR-FRET LANCE™ Assays: Prostanoid DP1
The potency of the compounds were determined using a LANCE™ cAMP assay kit as per the kit instructions. Briefly, CHO cells expressing DP1 receptor were thawed at 37° C., diluted in PBS and centrifuged at 1000 RPM for 5 minutes. Cells were then re-suspended (2 million cells/mL) in stimulation buffer (HBSS containing 0.01% BSA, 500 μM FAC IBMX, 5 mmol/L HEPES adjusted to pH 7.4 with KOH.
Briefly, cells were added (10,000 cells/well at 5 μL addition) to low volume white Greiner polypropylene 384-well plate assay plates containing 0.1 μl test compound. Following a 15 minute incubation at room temperature, 5 μl of antibody solution (stimulation buffer containing Alexia fluor 647) containing PGD2 at twice the determined EC80 concentration was added. Plates were incubated for a further 30 minutes at room temperature then detection mixture was added (kit components; detection buffer, europiumW8044-labelled streptavidin and biotin cAMP at 10 μl/well). Plates were covered and incubated the room temperature for 1 hour before reading on a Viewlux Microplate Imager using TR-FRET label settings.
All compounds were dissolved in DMSO at a concentration of 10 mM and were prepared in 100% DMSO using a 1 in 4 dilution step to provide 11-point concentration—response curves. The dilutions were transferred to the assay plates ensuring that the DMSO concentration was constant across the plate at 1% for all assays.
All data were normalised to the mean of 16 high and 16 low control wells on each plate. A four parameter curve fit of the following form was then applied.
Where a is the minimum, b is the Hill slope, c is the XC50, and d is the maximum. Data are presented as the mean pXC50 (negative log 10 of the molar XC50) with the standard deviation (SD) of number of tests in the experiments.

Row | SMILES | early and late nasal responses [1] | antigen-induced eosinophil infiltration into the lung [2] | Ki [3]
1 | CC1(C)[C@H]2C[C@H](C/C=C\CCCC(=O)O)[C@@H](NC(=O)c3csc4ccc(O)cc34)[C@@H]1C2 [Example S-5751] | inhibited | alleviated | 
2 | CC(C)c1nc2c(n1Cc1ccc(Cl)c(Cl)c1)C(CC(=O)O)CCC2 (centres unmarked) [Example 19, [1-[(3,4-dichlorophenyl)methyl]-2-(1-methylethyl)-4,5,6,7-tetrahydro-1H-benzimidazol-7-yl]acetic acid] |  |  | ≤ 0.01 µM
3 | CC(C)c1nc2c(n1Cc1ccc(Cl)c(Cl)c1)C(CC(=O)O)CC2 (single isomer, unassigned; isomer 2) [Example 11, [3-[(3,4-dichlorophenyl)methyl]-2-(1-methylethyl)-3,4,5,6-tetrahydrocyclopenta[d]imidazol-4-yl]acetic acid ammonia salt (Isomer 2)] |  |  | ≤ 0.1 µM
4 | CC(C)(C)c1nc2c(n1Cc1ccc(Cl)cc1)C(CC(=O)O)CC2 (centres unmarked) [Example 14, [3-[(4-chlorophenyl)methyl]-2-(1,1-dimethylethyl)-3,4,5,6-tetrahydrocyclopenta[d]imidazol-4-yl]acetic acid ammonia salt] |  |  | ≤ 0.1 µM
5 | CC(C)c1nc2c(n1Cc1ccc(Cl)c(Cl)c1)C(CC(=O)O)CCCC2 (single isomer, unassigned; isomer 1) [Example 4, (+)-[3-[(3,4-dichlorophenyl)methyl]-2-(1-methylethyl)-3,4,5,6,7,8-hexahydrocyclohepta[d]imidazol-4-yl]acetic acid (isomer 1)] |  |  | ≤ 0.01 µM
6 | CC(C)c1nc2c(n1[C@H](C)c1ccc(Cl)cc1)C(CC(=O)O)CCC2 (stereo partly drawn) [Example 33, [1-[(1R)-1-(4-chlorophenyl)ethyl]-2-(1-methylethyl)-4,5,6,7-tetrahydro-1H-benzimidazol-7-yl]acetic acid ammonia salt] |  |  | ≤ 0.1 µM
7 | CC(C)c1nc2c(n1Cc1ccc(Cl)c(Cl)c1)C(CC(=O)O)CCCC2 (single isomer, unassigned; isomer 2) [Example 5, [3-[(3,4-dichlorophenyl)methyl]-2-(1-methylethyl)-3,4,5,6,7,8-hexahydrocyclohepta[d]imidazol-4-yl]acetic acid (isomer 2)] |  |  | ≤ 0.1 µM
